Like-named read-outs stand apart in the source and are kept apart here.
How the values were obtained:
[1] = tested on: HCV GT2a genomic replicon Luc-Neo-JFH-1; assay: Luciferase reporter replicon antiviral assay, GT2a; format: cell-based; conditions: Hepatitis C virus
Protocol: (§1) The anti-HCV activity of STG-175 was conducted using a panel of luciferase reporter replicon cell lines including GT1a, GT1b, GT2a, GT3a and GT4a as we described previously. The GT1a subgenomic renilla luciferase reporter replicon H77 RLucP (7) was supplied by Dr. Delaney. The GT1b subgenomic firefly luciferase reporter replicon pFK-I389/NS3-3’ [29] was supplied by Dr. Bartenschlager. The GT1B subgenomic NS3, NS5A and NS5B mutants were created via homologous recombination using the In-Fusion HD Cloning kit (Clontech) as we described previously. The GT2a genomic luciferase reporter replicon Luc-Neo-JFH-1 was generated as previously. The plasmid pFK-Luc-JFH1 was supplied from Drs. […] The CellTiter-Fluor™ Cell Viability Assay is a non-lytic fluorescence assay, which measures the number of live cells. […] Luciferase activity was determined using the Luciferase Assay System (Promega) in a Berthold luminometer. […] Viable cells continuously convert resazurin to resorufin, increasing the overall fluorescence and color of the media surrounding cells.
(§2) Fig 2 Anti-HCV activities of STG-175 among GTs. […] Luciferase activity was determined using the Luciferase Assay System in a Berthold luminometer. […] Data are expressed as mean of relative light units and calculated EC50s are presented. […]

[2] = alamarBlue cytotoxicity (CC50), GT4a replicon cell line; conditions: human
Protocol: as §1, §2

[3] = tested on: wild-type Con1 (GT1b) replicon colonies; assay: Degree of resistance of replicon colonies, wild-type; format: cell-based; conditions: Hepatitis C virus, read-out: EC50 of STG-175, WT colonies
Protocol: Huh-7 cells expressing subgenomic Con1 (GT1b) replicon were incubated with STG-175 and 100 μg/ml of G418 in 10 cm CellBIND™ plates (Corning). Cells were split every 3 days at 1:6 and G418 concentration was increased sequentially to 200 and 300 μg/mL. […] At this point, medium was changed every 3–4 days until emergence of resistant clones. Clones were individually transferred to 24-well CellBIND using cloning disks. […] Each clone was split in 2 identical plates and was separately maintained under 0.5 or 1.0 μM STG-175 and 100 μg/mL of G418. Once the colonies were established, G418 concentration was increased to 300 μg/mL. […] Briefly, total RNA was prepared using the RNeasy Plus Mini Kit as per manufacturer’s recommendation. […] The amplicons were gel purified, quantitated and sequenced using primers located internally in NS5A or NS5B reading to the 5’ and 3’ ends. Sequences were assembled and analyzed using the ClustalW algorithm within the MacVector program. […]
Fig 3 Replicon clearance, replication rebound and resistance analyses. […] At each passage, samples of cells were collected, RNA extracted and analyzed by RT-PCR for HCV RNA levels. […] At each passage, sample of cells were collected, RNA extracted and analyzed by RT-PCR for HCV RNA levels. […] Data are expressed as number of HCV RNA copies per cell. […] Data are expressed as mean of relative light units and calculated EC50s are presented. […]

[4] = tested on: Con1 (GT1b) replicon colonies A, B, C (D320E NS5A); assay: microbe, parasite or virus in culture; format: cell-based, hepatitis C virus; conditions: for EC50: Hepatitis C virus, GT1B
Protocol: (§3) Huh-7 cells expressing subgenomic Con1 (GT1b) replicon were incubated with STG-175 and 100 μg/ml of G418 in 10 cm CellBIND™ plates (Corning). Cells were split every 3 days at 1:6 and G418 concentration was increased sequentially to 200 and 300 μg/mL. […] At this point, medium was changed every 3–4 days until emergence of resistant clones. Clones were individually transferred to 24-well CellBIND using cloning disks. […] Each clone was split in 2 identical plates and was separately maintained under 0.5 or 1.0 μM STG-175 and 100 μg/mL of G418. Once the colonies were established, G418 concentration was increased to 300 μg/mL. […] Briefly, total RNA was prepared using the RNeasy Plus Mini Kit as per manufacturer’s recommendation. Two hundred ng of total RNA was used for cDNA production using primers specific to the NS3-NS5B region or oligo(dT)18 using AccuScript High Fidelity 1st Strand cDNA Synthesis Kit (Stratagene). Amplicons were generated using primers defining the sequence at its 5’ and 3’ ends. The amplicons were gel purified, quantitated and sequenced using primers located internally in NS5A or NS5B reading to the 5’ and 3’ ends. Sequences were assembled and analyzed using the ClustalW algorithm within the MacVector program. The sequencing was conducted twice to ensure the authenticity of the nucleotide substitutions.
(§4) Fig 3 Replicon clearance, replication rebound and resistance analyses. […] Then drugs were removed to allow viral replication rebound to occur. At each passage, samples of cells were collected, RNA extracted and analyzed by RT-PCR for HCV RNA levels. B. Emergence of resistance: Con1 replicon Huh-7 cells were passaged 22 times in the absence or presence of STG-175 or selected DAAs. At each passage, sample of cells were collected, RNA extracted and analyzed by RT-PCR for HCV RNA levels. C. […] Data are expressed as number of HCV RNA copies per cell. […] Data are expressed as mean of relative light units and calculated EC50s are presented. […] E. Degree of resistance of D320E and Y321N Con1 variants: Left panel. Wild-type (WT), D320E and D320/Y321N NS5A Con1 RNA were electroporated into Huh7.5.1 cells and replication monitored over 8 days by quantifying the levels of intracellular HCV RNA. Right panel. Same as just above except that increasing concentrations of STG-175 were added at the time of the electroporation. […] STG-175 is taken as the substance from the printed x-axis title 'STG-175 in Log nM'.
(§5) We then sequenced the NS3-NS5B region of the HCV variants (colonies), which emerged after multiple passages under STG-175 selection. […] The five STG-175-resistant variants (5 colonies A to E) were then retested for STG-175 resistance by exposing them to increasing concentrations of STG-175 as we described previously.

[5] = tested on: Con1 (GT1b) replicon colonies D, E (D320E/Y321N NS5A); assay: microbe, parasite or virus in culture; format: cell-based, hepatitis C virus; conditions: for EC50: Hepatitis C virus, GT1B
Protocol: as §3, §4, §5

**Q.** With CC=CCC(C)C(O)C1C(=O)NC(CC)C(=O)N(C)C(CSCCCCO)C(=O)N(C)C(CC(C)(C)O)C(=O)NC(C(C)C)C(=O)N(C)C(CC(C)C)C(=O)NC(C)C(=O)NC(C)C(=O)N(C)C(CC(C)C)C(=O)N(C)C(CC(C)C)C(=O)N(C)C(C(C)C)C(=O)N1C (stereo not drawn) [STG-175] as the compound, how does the EC50 ([1]; 72 h post-drug addition, luciferase, read-out: EC50 GT2a) read?
**A.** 11.5 nM

**Q.** And the EC50 ([1]; Fig 2D table, unit inferred, read-out: EC50 GT2a (Fig 2D))?
**A.** 11.5 nM

**Q.** What about the CC50 at 72 h [2] of the same compound?
**A.** > 10000 nM

**Q.** What about the EC50 [3] of the same compound?
**A.** 15.7 nM

**Q.** And the “average fold higher resistance than wild-type colonies, colonies A, B and C” value [4]?
**A.** 10 fold

**Q.** And the “enhancement of resistance compared to wild-type replicon, colony A” value [4]?
**A.** 7.2 fold

**Q.** And the “enhancement of resistance compared to wild-type replicon, colony B” value [4]?
**A.** 7.8 fold

**Q.** And the “enhancement of resistance compared to wild-type replicon, colony C” value [4]?
**A.** 15.1 fold

**Q.** What about the EC50 ([4]; read-out: EC50, colony A (Clone A)) of the same compound?
**A.** 114 nM

**Q.** What about the EC50 ([4]; read-out: EC50, colony B (Clone B)) of the same compound?
**A.** 122 nM

**Q.** And the EC50 ([4]; read-out: EC50, colony C (Clone C))?
**A.** 238 nM

**Q.** And the EC50 ([4]; read-out: average EC50, colonies A, B and C)?
**A.** 158 nM

**Q.** What about the “average fold higher resistance than wild-type colonies, colonies D and E” value [5] of the same compound?
**A.** 33.8 fold

**Q.** And the “enhancement of resistance compared to wild-type replicon, colony D” value [5]?
**A.** 48.8 fold

**Q.** And the “enhancement of resistance compared to wild-type replicon, colony E” value [5]?
**A.** 18.9 fold

**Q.** What about the EC50 ([5]; read-out: EC50, colony D (Clone D)) of the same compound?
**A.** 766 nM

**Q.** And the EC50 ([5]; read-out: EC50, colony E (Clone E))?
**A.** 297 nM

**Q.** And the EC50 ([5]; read-out: average EC50, colonies D and E)?
**A.** 531 nM
